Read-outs that look alike come from different tables or passages of the source.
Tests used:
TBK1 = TBK1 (Homo sapiens (Human), UniProt Q9UHD2); assay: Lanthascreen TR-FRET kinase inhibition assay, TBK1; format: biochemical
Method: (§1) Compounds of the invention (synthesised as described below) were tested for activity against the IKKε and TBK-1 enzyme as follows:
(§2) Inhibitions studies were performed using a time-resolved fluorescence-based Lanthascreen™ assay. Phosphorylation of a fluorescein-labelled substrate peptide is measured using terbium-labeled phosphospecific antibodies.
(§3) Kinase inhibition assays (10 μL) were performed at 20° C. in 384-well plate format. […] The final reaction conditions contained 400 nM fluorescein-IkBα substrate ([…]), 20 μM ATP, 2 nM or 8 nM IKKε or TBK1 kinase respectively, and 3% DMSO in kinase assay buffer consisting of 50 mM HEPES (pH 7.5), 10 mM MgCl, 1 mM EGTA, 0.01% Brij-35.
(§4) Compound dilutions were prepared from 10 mM DMSO stocks by dilution into DMSO.
(§5) The kinase phosphorylation assay was initiated by the addition of the kinase and the reaction was allowed to proceed for 1 h or 2.5 h for IKKε and TBK-1 kinase respectively.

IKKε = IKKε (Homo sapiens (Human), UniProt Q14164); assay: Lanthascreen TR-FRET kinase inhibition assay, IKKε; format: biochemical
Method: as §1, §2, §3, §4, §5

[1] = 20 μM ATP (apparent Km), 8 nM kinase, 2.5 h
[2] = 20 μM ATP (apparent Km), 2 nM kinase, 1 h

IKKε, sequence (Q14164 whole entry): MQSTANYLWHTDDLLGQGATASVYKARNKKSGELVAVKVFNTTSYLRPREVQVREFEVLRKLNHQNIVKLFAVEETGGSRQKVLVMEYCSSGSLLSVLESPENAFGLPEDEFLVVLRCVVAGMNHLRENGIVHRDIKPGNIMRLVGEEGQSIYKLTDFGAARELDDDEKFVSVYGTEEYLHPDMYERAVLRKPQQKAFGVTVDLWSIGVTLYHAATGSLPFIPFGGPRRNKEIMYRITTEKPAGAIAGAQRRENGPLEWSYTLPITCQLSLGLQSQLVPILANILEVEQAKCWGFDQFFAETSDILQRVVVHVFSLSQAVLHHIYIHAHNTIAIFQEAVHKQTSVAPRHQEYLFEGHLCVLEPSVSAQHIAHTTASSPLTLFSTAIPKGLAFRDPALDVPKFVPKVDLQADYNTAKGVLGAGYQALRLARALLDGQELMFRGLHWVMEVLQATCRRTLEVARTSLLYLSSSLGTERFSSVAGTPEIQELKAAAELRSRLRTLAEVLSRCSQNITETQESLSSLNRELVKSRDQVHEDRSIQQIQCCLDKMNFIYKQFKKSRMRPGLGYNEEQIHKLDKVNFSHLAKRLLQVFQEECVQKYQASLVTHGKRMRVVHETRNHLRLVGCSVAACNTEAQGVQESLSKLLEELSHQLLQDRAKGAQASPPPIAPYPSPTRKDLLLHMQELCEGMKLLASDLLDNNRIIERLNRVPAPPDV
TBK1, sequence (Q9UHD2 whole entry): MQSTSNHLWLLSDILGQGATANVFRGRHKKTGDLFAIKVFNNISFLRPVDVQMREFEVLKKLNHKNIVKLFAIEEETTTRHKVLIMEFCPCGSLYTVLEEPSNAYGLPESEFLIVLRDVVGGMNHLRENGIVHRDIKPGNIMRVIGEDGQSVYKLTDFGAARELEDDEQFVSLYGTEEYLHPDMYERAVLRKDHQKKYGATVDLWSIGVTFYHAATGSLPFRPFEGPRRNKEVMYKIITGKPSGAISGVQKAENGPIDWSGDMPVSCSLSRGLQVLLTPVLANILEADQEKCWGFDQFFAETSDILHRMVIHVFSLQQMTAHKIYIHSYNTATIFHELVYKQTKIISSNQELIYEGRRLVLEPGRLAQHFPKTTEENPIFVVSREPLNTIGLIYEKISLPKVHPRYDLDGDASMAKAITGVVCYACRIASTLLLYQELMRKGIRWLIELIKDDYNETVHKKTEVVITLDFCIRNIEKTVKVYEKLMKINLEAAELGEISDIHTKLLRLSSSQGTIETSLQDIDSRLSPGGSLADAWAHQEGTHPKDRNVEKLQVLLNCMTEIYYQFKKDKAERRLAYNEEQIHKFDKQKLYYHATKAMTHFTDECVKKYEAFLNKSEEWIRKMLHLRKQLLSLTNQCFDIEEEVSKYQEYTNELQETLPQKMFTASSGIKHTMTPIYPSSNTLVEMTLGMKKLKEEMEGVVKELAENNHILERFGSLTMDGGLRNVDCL

Row | IC50 (TBK1; [1]) [nM] | IC50 (IKKε; [2]) [nM] | SMILES | IC50 (IKKε) [nM] | IC50 (TBK1) [nM]
1 | < 15 | < 15 | N#Cc1cc(-c2ccnc(Nc3ccc(CN4CCOCC4)cc3)n2)cnc1N1CC[C@H](F)C1 [DMX-30, 2-((S)-3-Fluoro-pyrrolidin-1-yl)-5-[2-(4-morpholin-4-ylmethyl-phenylamino)-pyrimidin-4-yl]-nicotinonitrile] | – | –
2 | < 30 | < 100 | N#Cc1cc(-c2ccnc(Nc3ccc(NC(=O)CN4CCNCC4)nc3)n2)cnc1N1CC[C@H](F)C1 [DMX-31, N-(5-{4-[5-Cyano-6-((S)-3-fluoro-pyrrolidin-1-yl)-pyridin-3-yl]-pyrimidin-2-ylamino}-pyridin-2-yl)-2-piperazin-1-yl-acetamide] | – | –
3 | < 30 | < 30 | CC(C(=O)Nc1ccc(Nc2nccc(-c3cnc(N4CC[C@H](F)C4)c(C#N)c3)n2)cn1)N1CCOCC1 (stereo partly drawn) [DMX-32, N-(5-{4-[5-Cyano-6-((S)-3-fluoro-pyrrolidin-1-yl)-pyridin-3-yl]-pyrimidin-2-ylamino}-pyridin-2-yl)-2-morpholin-4-yl-propionamide] | – | –
4 | < 15 | < 15 | N#Cc1cc(-c2ccnc(Nc3cnn(C4CCOCC4)c3)n2)cnc1N1CC[C@H](F)C1 [DMX-33, 2-((S)-3-Fluoro-pyrrolidin-1-yl)-5-{2-[1-(tetrahydro-pyran-4-yl)-1H-pyrazol-4-ylamino]-pyrimidin-4-yl}-nicotinonitrile] | – | –
5 | < 30 | < 30 | N#Cc1cc(-c2ccnc(Nc3ccnc(NC(=O)CN4CCOCC4)c3)n2)cnc1N1CC[C@H](F)C1 [DMX-34, N-(4-{4-[5-Cyano-6-((S)-3-fluoro-pyrrolidin-1-yl)-pyridin-3-yl]-pyrimidin-2-ylamino}-pyridin-2-yl)-2-morpholin-4-yl-acetamide] | – | –
6 | < 100 | – | N#Cc1cc(-c2ccnc(Nc3ccc(NC(=O)CN4CC[C@H](O)C4)nc3)n2)cnc1N1CC[C@H](F)C1 [DMX-35, N-(5-{4-[5-Cyano-6-((S)-3-fluoro-pyrrolidin-1-yl)-pyridin-3-yl]-pyrimidin-2-ylamino}-pyridin-2-yl)-2-((S)-3-hydroxy-pyrrolidin-1-yl)-acetamide] | < 30 | –
7 | < 30 | < 30 | N#Cc1cc(-c2ccnc(Nc3cnn(CCO)c3)n2)cnc1N1CCCC1 [DMX-36, 5-{2-[1-(2-Hydroxy-ethyl)-1H-pyrazol-4-ylamino]-pyrimidin-4-yl}-2-pyrrolidin-1-yl-nicotinonitrile] | – | –
8 | < 15 | < 15 | N#Cc1cc(-c2ccnc(Nc3ccc(C(N)=O)cc3)n2)cnc1N1CCCC1 [DMX-37, 4-[4-(5-Cyano-6-pyrrolidin-1-yl-pyridin-3-yl)-pyrimidin-2-ylamino]-benzamide] | – | –
9 | < 15 | < 100 | N#Cc1cc(-c2ccnc(Nc3cnn(C[C@H](O)CO)c3)n2)cnc1N1CCCC1 [DMX-38, 5-{2-[1-((S)-2,3-Dihydroxy-propyl)-1H-pyrazol-4-ylamino]-pyrimidin-4-yl}-2-pyrrolidin-1-yl-nicotinonitrile] | – | –
10 | < 15 | < 30 | N#Cc1cc(-c2ccnc(Nc3cnn(C[C@@H](O)CO)c3)n2)cnc1N1CCCC1 [DMX-39, 5-{2-[1-((R)-2,3-Dihydroxy-propyl)-1H-pyrazol-4-ylamino]-pyrimidin-4-yl}-2-pyrrolidin-1-yl-nicotinonitrile] | – | –
11 | < 1000 | < 9000 | Cn1cc(Nc2nccc(-c3cnc(N4CCC[C@@H]4C(=O)O)c(C#N)c3)n2)cn1 [DMX-40, (R)-1-{3-Cyano-5-[2-(1-methyl-1H-pyrazol-4-ylamino)-pyrimidin-4-yl]-pyridin-2-yl}-pyrrolidine-2-carboxylic acid] | – | –
12 | < 100 | < 1000 | Cn1cc(NC(=O)[C@H]2CCCN2c2ncc(-c3ccnc(Nc4cnn(C)c4)n3)cc2C#N)cn1 [DMX-41, (R)-1-{3-Cyano-5-[2-(1-methyl-1H-pyrazol-4-ylamino)-pyrimidin-4-yl]-pyridin-2-yl}-pyrrolidine-2-carboxylic acid (1-methyl-1H-pyrazol-4-yl)-amide] | – | –
13 | < 100 | < 1000 | Cn1cc(Nc2nccc(-c3cnc(N4CCC[C@H]4C#N)c(C#N)c3)n2)cn1 [DMX-42, 2-((S)-2-Cyano-pyrrolidin-1-yl)-5-[2-(1 methyl-1H-pyrazol-4-ylamino)-pyrimidin-4-yl]-nicotinonitrile] | – | –
14 | < 100 | < 100 | Cn1cc(Nc2nccc(-c3cnc(N4CCC[C@@H]4C(N)=O)c(C#N)c3)n2)cn1 [DMX-43, (R)-1-{3-Cyano-5-[2-(1-methyl-1H-pyrazol-4-ylamino)-pyrimidin-4-yl]-pyridin-2-yl}-pyrrolidine-2-carboxylic acid amide] | – | –
15 | – | – | Cn1cc(Nc2nccc(-c3cnc(N4C5CCC4CC(O)C5)c(C#N)c3)n2)cn1 (stereo not shown) [DMX-44, 2-(3-Hydroxy-8-aza-bicyclo[3.2.1]oct-8-yl)-5-[2-(1-methyl-1H-pyrazol-4-ylamino)-pyrimidin-4-yl]-nicotinonitrile] | < 30 | < 15
16 | < 30 | < 30 | N#Cc1cc(-c2ccnc(Nc3ccc(C(N)=O)nc3)n2)cnc1N1CC[C@H](F)C1 [DMX-47, 5-{4-[5-Cyano-6-((S)-3-fluoro-pyrrolidin-1-yl)-pyridin-3-yl]-pyrimidin-2-ylamino}-pyridine-2-carboxylic acid amide] | – | –
17 | < 15 | < 15 | N#Cc1cc(-c2ccnc(Nc3ccc(C(=O)NCCO)cc3)n2)cnc1N1CC[C@H](F)C1 [DMX-48, 4-{4-[5-Cyano-6-((S)-3-fluoro-pyrrolidin-1-yl)-pyridin-3-yl]-pyrimidin-2-ylamino}-N-(2-hydroxy-ethyl)-benzamide] | – | –
18 | < 15 | < 15 | N#Cc1cc(-c2ccnc(Nc3ccc(N4CCOCC4)cc3)n2)cnc1N1CC[C@H](O)C1 [DMX-49, 2-((S)-3-Hydroxy-pyrrolidin-1-yl)-5-[2-(4-morpholin-4-yl-phenylamino)-pyrimidin-4-yl]-nicotinonitrile] | – | –
19 | < 30 | < 100 | N#Cc1cc(-c2ccnc(Nc3ccc(N4CCOCC4)nc3)n2)cnc1N1CC[C@H](O)C1 [DMX-50, 2-((S)-3-Hydroxy-pyrrolidin-1-yl)-5-[2-(6-morpholin-4-yl-pyridin-3-ylamino)-pyrimidin-4-yl]-nicotinonitrile] | – | –
20 | < 30 | < 30 | N#Cc1cc(-c2ccnc(Nc3cnn(CCO)c3)n2)cnc1N1CC[C@H](F)C1 [DMX-51, 2-((S)-3-Fluoro-pyrrolidin-1-yl)-5-{2-[1-(2-hydroxy-ethyl)-1H-pyrazol-4-ylamino]-pyrimidin-4-yl}-nicotinonitrile] | – | –
21 | < 30 | < 100 | N#Cc1cc(-c2ccnc(Nc3cnn(CCCO)c3)n2)cnc1N1CC[C@H](F)C1 [DMX-52, 2-((S)-3-Fluoro-pyrrolidin-1-yl)-5-{2-[1-(3-hydroxy-propyl)-1H-pyrazol-4-ylamino]-pyrimidin-4-yl}-nicotinonitrile] | – | –
22 | < 30 | < 100 | N#Cc1cc(-c2ccnc(Nc3cnn(CCN4CCOCC4)c3)n2)cnc1N1CC[C@H](F)C1 [DMX-53, 2-((S)-3-Fluoro-pyrrolidin-1-yl)-5-{2-[1-(2-morpholin-4-yl-ethyl)-1H-pyrazol-4-ylamino]-pyrimidin-4-yl}-nicotinonitrile] | – | –
23 | < 100 | < 30 | COCCNCC(=O)Nc1ccc(Nc2nccc(-c3cnc(N4CC[C@H](F)C4)c(C#N)c3)n2)cn1 [DMX-54, N-(5-{4-[5-Cyano-6-((S)-3-fluoro-pyrrolidin-1-yl)-pyridin-3-yl]-pyrimidin-2-ylamino}-pyridin-2-yl)-2-(2-methoxy-ethylamino)-acetamide] | – | –
24 | < 30 | < 100 | CC(NCc1ccccc1)C(=O)Nc1ccc(Nc2nccc(-c3cnc(N4CC[C@H](F)C4)c(C#N)c3)n2)cn1 (stereo partly drawn) [DMX-55, 2-Benzylamino-N-(5-{4-[5-cyano-6-((S)-3-fluoro-pyrrolidin-1-yl)-pyridin-3-yl]-pyrimidin-2-ylamino}-pyridin-2-yl)-propionamide] | – | –
25 | < 100 | < 30 | CC(N)C(=O)Nc1ccc(Nc2nccc(-c3cnc(N4CC[C@H](F)C4)c(C#N)c3)n2)cn1 (stereo partly drawn) [DMX-56, 2-Amino-N-(5-{4-[5-cyano-6-((S)-3-fluoro-pyrrolidin-1-yl)-pyridin-3-yl]-pyrimidin-2-ylamino)-pyridin-2-yl)-propionamide] | – | –
26 | < 15 | < 30 | N#Cc1nc(-c2ccnc(Nc3ccc(N4CCOCC4)cc3)n2)ccc1N1CC[C@H](O)C1 [DMX-57, 3-((S)-3-Hydroxy-pyrrolidin-1-yl)-6-[2-(4-morpholin-4-yl-phenylamino)-pyrimidin-4-yl]-pyridine-2-carbonitrile] | – | –
27 | < 15 | < 15 | N#Cc1nc(-c2ccnc(Nc3ccc(N4CCOCC4)cc3)n2)ccc1N1CCCC1 [DMX-58, 6-[2-(4-Morpholin-4-yl-phenylamino)-pyrimidin-4-yl]-3-pyrrolidin-1-yl-pyridine-2-carbonitrile] | – | –

Row | SMILES | IC50 (TBK1; [1]) [nM] | IC50 (IKKε; [2]) [nM] | IC50 (IKKε) [nM] | IC50 (TBK1) [nM]
28 | Cn1cc(Nc2nccc(-c3cnc(N4C5CCC4COC5)c(C#N)c3)n2)cn1 [DMX-45, 5-[2-(1-Methyl-1H-pyrazol-4-ylamino)-pyrimidin-4-yl]-2-(3-oxa-8-aza-bicyclo[3.2.1]oct-8-yl)-nicotinonitrile] | < 100 | < 100 | – | –
29 | N#Cc1cc(-c2ccnc(Nc3cnn(CCO)c3)n2)cnc1N1C2CCC1COC2 [DMX-46, 5-{2-[1-(2-Hydroxy-ethyl)-1H-pyrazol-4-ylamino]-pyrimidin-4-yl}-2-(3-oxa-8-aza-bicyclo[3.2.1]oct-8-yl)-nicotinonitrile] | < 100 | < 1000 | – | –
